Earlier results, collected in patent US6184255A, “Pharmaceutical composition comprising coenzyme Q10” (Kaneka Corporation, priority 1996, dated 2001).

Details: oral, considerably greater amount than actually needed

**Q.** With `COC1=C(OC)C(=O)C(C/C=C(\C)CC/C=C(\C)CC/C=C(\C)CC/C=C(\C)CC/C=C(\C)CC/C=C(\C)CC/C=C(\C)CC/C=C(\C)CC/C=C(\C)CCC=C(C)C)=C(C)C1=O` [Coenzyme Q10] as the compound, how does the adverse gastrointestinal reactions read?
**A.** adverse gastrointestinal reactions such as epigastric discomfort, anorexia, nausea, and diarrheas
